Measurements from patent US20260285871A1, “Polymorphic Compounds and Uses Thereof” (TYRA BIOSCIENCES, INC., priority 2022, published 2026).

Assay: Crystallization (polymorph) studies of compound A free base: fast/slow evaporation, slurry at 25° C., anti-solvent addition, vapor diffusion; solids analysed by XRPD
Assay type: physicochemical
Conditions: for FE: fast evaporative crystallization; for Results from Slow Evaporation Crystallization Experiments: slow evaporation at room temperature; for Slurry: slurry at 25° C., three days
Description: (§1) I. Fast Evaporative Crystallization Method (FE): compound A (ca. 30 mg) was dissolved in minimum quantity the stated solvent while heating at 80° C. The resulted solutions were filtered using a 0.45 μm PTFE syringe filter and the filtrate was collected. The filtrate was evaporated using a rotavap.
as §1, with “II. Slow” for “I. Fast”, “(SE):” for “(FE):”, “covered with perforated aluminum foil and left to evaporate at ambient temperature.” for “evaporated using a rotavap.”
III. Slurry Crystallization at 25° C. using Form I of compound A: compound A (ca. 100 mg) was suspended in minimum quantity the stated solvent. The resulted slurries were allowed to stir at 25° C. for three days.
IV. Anti-Solvent Addition Crystallization: compound A (ca. 50 mg) was dissolved in solubilizing solvent. To that solution 200 μL anti-solvent was added slowly. These iterations were continued until the precipitation observed or maximum solvent quantity of ~25 mL. Many solvents were used as the solubilizing solvent in these experiments. Selection of anti-solvent for each solubilizing solvent is based on the miscibility between them.
V. Vapor Diffusion Crystallization: compound A (ca. 30 mg) was dissolved in solubilizing solvent and kept in a small (8 mL) vial. These vials were kept in a larger vial (40 mL) that had 15 mL anti-solvents and closed the vial cap to allow vapor diffusion between them. Many solvents were used as the solubilizing solvent in these experiments. Selection of anti-solvent for each solubilizing solvent is based on the miscibility between them. All the experiments were kept in undisturbed laboratory bench and observed periodically to see if any crystals were grown during that time.
Compound A was slurred in respective solvents and stirred at 25° C. for three days. A total of five unique XRPD patterns were identified and designated as Form I, Form II, Form III, Form IV, and Form V.
Compound A was dissolved in a suitable solvent while heating up to 80° C. and the resultant solutions were allowed to slowly evaporate at room temperature (25° C.).
Compound A was dissolved in suitable solvents. To those solutions anti-solvents were added to obtain the solids. The solvent and anti-solvent selection was based on the solubility of compound A and also miscibility between them.

[1] = solvent 14DOX, anti-solvent DEE
[2] = solvent 14DOX, anti-solvent T-Butyl Methyl Ether
[3] = solvent CHCl3, anti-solvent 4-Me-2Pentanone
[4] = solvent CHCl3, anti-solvent DEE
[5] = solvent CHCl3, anti-solvent T-Butyl Methyl Ether
[6] = solvent DCM, anti-solvent 4-Me-2Pentanone
[7] = solvent DCM, anti-solvent T-Butyl Methyl Ether
[8] = solvent DMSO, anti-solvent Water
[9] = solvent EtOAc, anti-solvent 4-Me-2Pentanone
[10] = solvent EtOAc, anti-solvent DEE
[11] = solvent EtOAc, anti-solvent T-Butyl Methyl Ether
[12] = solvent EtOH, anti-solvent 4-Me-2Pentanone
[13] = solvent EtOH, anti-solvent T-Butyl Methyl Ether
[14] = solvent EtOH, anti-solvent Water
[15] = solvent IPA, anti-solvent 4-Me-2Pentanone
[16] = solvent IPA, anti-solvent T-Butyl Methyl Ether
[17] = solvent MeOH, anti-solvent 4-Me-2Pentanone
[18] = solvent MeOH, anti-solvent T-Butyl Methyl Ether
[19] = solvent MeOH, anti-solvent Water
[20] = solvent THF, anti-solvent 4-Me-2Pentanone
[21] = solvent THF, anti-solvent T-Butyl Methyl Ether
[22] = solvent THF, anti-solvent Water

For `C[C@@H](Oc1ccc2[nH]nc(-c3ccc(N4CC5(C4)CN(S(C)(=O)=O)C5)nc3)c2c1)c1c(Cl)cncc1Cl` [Compound A, 5-[(1R)-1-(3,5-dichloro-4-pyridyl)ethoxy]-3-[6-(2-methylsulfonyl-2,6-diazaspiro[3.3]heptan-6-yl)-3-pyridyl]-1H-indazole], the FE (solvent 4-Me 2-Pentanone) was “Not Dissolved”, the FE (solvent ACN) was “Form II” and the FE (solvent Acetone) was “Form II”. The FE (solvent CHCl3) was “Clear film”, the FE (solvent DEE) was “Not Dissolved” and the FE (solvent EtOAc) was “Form VIII”. For the same compound, the FE (solvent EtOH) was “Form IV”, the FE (solvent H2O) was “Not Dissolved” and the FE (solvent IPA) was “Form IV”. For the same compound, the FE (solvent MeOH) was “Form IV”, the FE (solvent THF) was “Clear film” and the FE (solvent tert-butyl methyl ether) was “Not Dissolved”. For the same compound, the “Results from Slow Evaporation Crystallization Experiments” value (solvent 1,2-Propdiol) was “Form IV”, the “Results from Slow Evaporation Crystallization Experiments” value (solvent 4-Me 2-Pentanone) was “Form I” and the “Results from Slow Evaporation Crystallization Experiments” value (solvent ACN) was “Form IV”. For the same compound, the “Results from Slow Evaporation Crystallization Experiments” value (solvent Acetone) was “Form IV and 5”, the “Results from Slow Evaporation Crystallization Experiments” value (solvent DCM) was “Form IV” and the “Results from Slow Evaporation Crystallization Experiments” value (solvent DEE) was “Form I”. The “Results from Slow Evaporation Crystallization Experiments” value (solvent DMF) was “Form IV”, the “Results from Slow Evaporation Crystallization Experiments” value (solvent DMSO) was “Form IV” and the “Results from Slow Evaporation Crystallization Experiments” value (solvent EtOAc) was “Form IV”. For the same compound, the “Results from Slow Evaporation Crystallization Experiments” value (solvent EtOH) was “Form IV”, the “Results from Slow Evaporation Crystallization Experiments” value (solvent Eth. Gly) was “Form IV” and the “Results from Slow Evaporation Crystallization Experiments” value (solvent H2O) was “Form I”. The “Results from Slow Evaporation Crystallization Experiments” value (solvent IPA) was “Form IV”, the “Results from Slow Evaporation Crystallization Experiments” value (solvent MeOH) was “Form II” and the “Results from Slow Evaporation Crystallization Experiments” value (solvent T-ButylMethEther) was “Form I”. For the same compound, the “Results from Slow Evaporation Crystallization Experiments” value (solvent THF) was “Form IV”, the Slurry (solvent 1,2-Propdiol) was “Form I” and the Slurry (solvent 4-Me 2-Pentanone) was “Form I”. The Slurry (solvent 14DOX) was “Form VI”, the Slurry (solvent ACN) was “Form III” and the Slurry (solvent Acetone) was “Form II”. For the same compound, the Slurry (solvent CHCl3) was “Form III”, the Slurry (solvent DCM) was “Form II” and the Slurry (solvent DEE) was “Form I”. For the same compound, the Slurry (solvent DMF) was “Form VII”, the Slurry (solvent EtOAc) was “Form I” and the Slurry (solvent EtOH) was “Form I”. For the same compound, the Slurry (solvent Eth. Gly) was “Form I”, the Slurry (solvent H2O) was “Form I” and the Slurry (solvent IPA) was “Form I”. The Slurry (solvent MeOH) was “Form II”, the Slurry (solvent T-ButylMethEther) was “Form I” and the Slurry (solvent THF) was “Form III”. For the same compound, the “Results of Anti-Solvent Addition Studies” value (solvent 14DOX, anti-solvent 4-Me-2Pentanone) was “No XRPD -”, the “Results of Anti-Solvent Addition Studies” value [1] was “Form II” and the “Results of Vapor Diffusion Studies” value [1] was “Form VIII”. The “Results of Anti-Solvent Addition Studies” value [2] was “Form I”, the “Results of Vapor Diffusion Studies” value [2] was “Form VIII” and the “Results of Anti-Solvent Addition Studies” value (solvent 14DOX, anti-solvent Water) was “Form V”. For the same compound, the “Results of Anti-Solvent Addition Studies” value (solvent ACN, anti-solvent 4-Me-2Pentanone) was “No XRPD -”, the “Results of Anti-Solvent Addition Studies” value (solvent ACN, anti-solvent DEE) was “No XRPD -” and the “Results of Anti-Solvent Addition Studies” value (solvent ACN, anti-solvent T-Butyl Methyl Ether) was “Form IV”. The “Results of Anti-Solvent Addition Studies” value (solvent ACN, anti-solvent Water) was “Form V +”, the “Results of Anti-Solvent Addition Studies” value (solvent Acetone, anti-solvent 4-Me-2Pentanone) was “No XRPD -” and the “Results of Anti-Solvent Addition Studies” value (solvent Acetone, anti-solvent DEE) was “Form II”. For the same compound, the “Results of Anti-Solvent Addition Studies” value (solvent Acetone, anti-solvent T-Butyl Methyl Ether) was “Form I”, the “Results of Anti-Solvent Addition Studies” value (solvent Acetone, anti-solvent Water) was “Form V” and the “Results of Anti-Solvent Addition Studies” value [3] was “Form II”. The “Results of Vapor Diffusion Studies” value [3] was “Form I +”, the “Results of Anti-Solvent Addition Studies” value [4] was “Form I” and the “Results of Vapor Diffusion Studies” value [4] was “Form VIII”. The “Results of Anti-Solvent Addition Studies” value [5] was “Form I”, the “Results of Vapor Diffusion Studies” value [5] was “Form I” and the “Results of Anti-Solvent Addition Studies” value [6] was “Form IV”. The “Results of Vapor Diffusion Studies” value [6] was “Form I +”, the “Results of Anti-Solvent Addition Studies” value (solvent DCM, anti-solvent DEE) was “Form II” and the “Results of Vapor Diffusion Studies” value (solvent DCM, anti-solvent DEE) was “Form IV”. For the same compound, the “Results of Anti-Solvent Addition Studies” value [7] was “Form I”, the “Results of Vapor Diffusion Studies” value [7] was “Form I +” and the “Results of Anti-Solvent Addition Studies” value (solvent DMF, anti-solvent 4-Me-2Pentanone) was “No XRPD -”. The “Results of Anti-Solvent Addition Studies” value (solvent DMF, anti-solvent DEE) was “Form VIII”, the “Results of Anti-Solvent Addition Studies” value (solvent DMF, anti-solvent T-Butyl Methyl Ether) was “Form II” and the “Results of Anti-Solvent Addition Studies” value (solvent DMF, anti-solvent Water) was “Form II”. The “Results of Anti-Solvent Addition Studies” value (solvent DMSO, anti-solvent T-Butyl Methyl Ether) was “Form IV”, the “Results of Anti-Solvent Addition Studies” value [8] was “Amorphous” and the “Results of Vapor Diffusion Studies” value [8] was “Form IV +”. For the same compound, the “Results of Anti-Solvent Addition Studies” value [9] was “Form IV +”, the “Results of Vapor Diffusion Studies” value [9] was “Form IV” and the “Results of Anti-Solvent Addition Studies” value [10] was “Form IV”. The “Results of Vapor Diffusion Studies” value [10] was “Form IV”, the “Results of Anti-Solvent Addition Studies” value [11] was “Form I” and the “Results of Vapor Diffusion Studies” value [11] was “Form IV”. For the same compound, the “Results of Anti-Solvent Addition Studies” value [12] was “No XRPD -”, the “Results of Vapor Diffusion Studies” value [12] was “No XRPD -” and the “Results of Anti-Solvent Addition Studies” value (solvent EtOH, anti-solvent DEE) was “Form IV”. The “Results of Vapor Diffusion Studies” value (solvent EtOH, anti-solvent DEE) was “Form IV”, the “Results of Anti-Solvent Addition Studies” value [13] was “Form IV” and the “Results of Vapor Diffusion Studies” value [13] was “Form IV”. The “Results of Anti-Solvent Addition Studies” value [14] was “Form IV +”, the “Results of Vapor Diffusion Studies” value [14] was “Form IV +” and the “Results of Anti-Solvent Addition Studies” value [15] was “No XRPD -”. The “Results of Vapor Diffusion Studies” value [15] was “Form IV”, the “Results of Anti-Solvent Addition Studies” value (solvent IPA, anti-solvent DEE) was “Form IV” and the “Results of Vapor Diffusion Studies” value (solvent IPA, anti-solvent DEE) was “Form IV”. For the same compound, the “Results of Anti-Solvent Addition Studies” value [16] was “Form IV”, the “Results of Vapor Diffusion Studies” value [16] was “Form IV +” and the “Results of Anti-Solvent Addition Studies” value (solvent IPA, anti-solvent Water) was “Form IV +”. The “Results of Anti-Solvent Addition Studies” value [17] was “No XRPD -”, the “Results of Vapor Diffusion Studies” value [17] was “No XRPD -” and the “Results of Anti-Solvent Addition Studies” value (solvent MeOH, anti-solvent DEE) was “Form II”. For the same compound, the “Results of Anti-Solvent Addition Studies” value [18] was “Form II”, the “Results of Vapor Diffusion Studies” value [18] was “Form II” and the “Results of Anti-Solvent Addition Studies” value [19] was “Form II”. For the same compound, the “Results of Vapor Diffusion Studies” value [19] was “Form II”, the “Results of Anti-Solvent Addition Studies” value [20] was “Form I” and the “Results of Vapor Diffusion Studies” value [20] was “Form II”. The “Results of Anti-Solvent Addition Studies” value (solvent THF, anti-solvent DEE) was “Form II”, the “Results of Vapor Diffusion Studies” value (solvent THF, anti-solvent DEE) was “Form IV” and the “Results of Anti-Solvent Addition Studies” value [21] was “Form I”. The “Results of Vapor Diffusion Studies” value [21] was “Form VIII”, the “Results of Anti-Solvent Addition Studies” value [22] was “Form V” and the “Results of Vapor Diffusion Studies” value [22] was “Form V”.
